From ChEMBL document CHEMBL1138895, “Synthesis and antibacterial activity of nocathiacin I analogues” (Bioorg Med Chem Lett, 2006)
≈ marks a conversion by molar mass, not a printed value.

Legend:
Streptococcus pneumoniae = test: Antibacterial activity against penicillin resistant Streptococcus pneumoniae A28272; assay type: functional
Enterococcus faecalis = test: Antibacterial activity against […] A20688; assay type: functional
Staphylococcus aureus = test: Antibacterial activity against methicillin-sensitive Staphylococcus aureus A15090; assay type: functional
[1] = Solubility at pH 3.1; assay type: physicochemical; conditions: buffer
Mus musculus = organism: Mus musculus; test: Activity against Staphylococcus aureus A15090 infected ICR mouse after 8 days; assay type: functional; conditions: 192 h, read-out: PD50
[2] = Solubility at pH 2.9; assay type: physicochemical; conditions: buffer
[3] = Solubility at pH 7.4; assay type: physicochemical; conditions: buffer

Structure (SMILES)	MIC (Streptococcus pneumoniae)	MIC (Enterococcus faecalis)	MIC (Staphylococcus aureus)	solubility [1]	ED50 (Mus musculus)	solubility [2]	solubility [3]
COCCOCCOCCOCCNC(=O)[C@H](C)NC(=O)c1csc(-c2nc3c(cc2O)-c2nc(cs2)C(=O)N[C@@H]([C@@H](C)O)C(=O)N/C(=C(\C)OC)c2nc(cs2)C(=O)N[C@@H]2c4nc(cs4)C(=O)N[C@@H](COC(=O)c4c5c6c(cccc6n4O)COC(=O)[C@@H](O[C@H]4C[C@](C)(O)[C@H](N(C)C)[C@H](C)O4)[C@H]2OC5)c2nc-3cs2)n1	0.003 µg/mL (≈ 0.00184 µM)	0.5 µg/mL (≈ 0.307 µM)	0.06 µg/mL (≈ 0.0368 µM)				
CO/C(C)=C1/NC(=O)[C@H]([C@@H](C)O)NC(=O)c2csc(n2)-c2cc(O)c(-c3nc(C(=O)N[C@@H](C)C(N)=O)cs3)nc2-c2csc(n2)[C@@H]2COC(=O)c3c4c5c(cccc5n3O)COC(=O)[C@@H](O[C@H]3C[C@](C)(O)[C@H](N(C)C)[C@H](C)O3)[C@@H](OC4)[C@H](NC(=O)c3csc1n3)c1nc(cs1)C(=O)N2	0.06 µg/mL (≈ 0.0417 µM)	2 µg/mL (≈ 1.39 µM)	0.25 µg/mL (≈ 0.174 µM)	700 µg/mL (≈ 486 µM)	1.65 mg/kg		
CO/C(C)=C1/NC(=O)[C@H]([C@@H](C)O)NC(=O)c2csc(n2)-c2cc(O)c(-c3nc(C(=O)N[C@@H](C)C(=O)NC[C@H](O)CO)cs3)nc2-c2csc(n2)[C@@H]2COC(=O)c3c4c5c(cccc5n3O)COC(=O)[C@@H](O[C@H]3C[C@](C)(O)[C@H](N(C)C)[C@H](C)O3)[C@@H](OC4)[C@H](NC(=O)c3csc1n3)c1nc(cs1)C(=O)N2	0.03 µg/mL (≈ 0.0198 µM)	0.25 µg/mL (≈ 0.165 µM)	0.25 µg/mL (≈ 0.165 µM)	> 2200 µg/mL	5 mg/kg		
CO/C(C)=C1/NC(=O)[C@H]([C@@H](C)O)NC(=O)c2csc(n2)-c2cc(O)c(-c3nc(C(=O)N[C@@H](C)C(=O)NCCO)cs3)nc2-c2csc(n2)[C@@H]2COC(=O)c3c4c5c(cccc5n3O)COC(=O)[C@@H](O[C@H]3C[C@](C)(O)[C@H](N(C)C)[C@H](C)O3)[C@@H](OC4)[C@H](NC(=O)c3csc1n3)c1nc(cs1)C(=O)N2	0.001 µg/mL (≈ 0.000674 µM)	0.5 µg/mL (≈ 0.337 µM)	0.03 µg/mL (≈ 0.0202 µM)	1300 µg/mL (≈ 876 µM)	1.44 mg/kg		
CO/C(C)=C1/NC(=O)[C@H]([C@@H](C)O)NC(=O)c2csc(n2)-c2cc(O)c(-c3nc(C(=O)N[C@@H](C)C(=O)NCCOCCOCCOCCOCCOCCOC4O[C@H](CO)[C@@H](O)[C@H](O)[C@H]4O)cs3)nc2-c2csc(n2)[C@@H]2COC(=O)c3c4c5c(cccc5n3O)COC(=O)[C@@H](O[C@H]3C[C@](C)(O)[C@H](N(C)C)[C@H](C)O3)[C@@H](OC4)[C@H](NC(=O)c3csc1n3)c1nc(cs1)C(=O)N2 (stereo not given in full)	1 µg/mL (≈ 0.536 µM)	8 µg/mL (≈ 4.29 µM)	4 µg/mL (≈ 2.14 µM)			> 3700 µg/mL	
CO/C(C)=C1/NC(=O)[C@H]([C@@H](C)O)NC(=O)c2csc(n2)-c2cc(O)c(-c3nc(C(=O)N[C@@H](C)C(=O)NCCOCCO)cs3)nc2-c2csc(n2)[C@@H]2COC(=O)c3c4c5c(cccc5n3O)COC(=O)[C@@H](O[C@H]3C[C@](C)(O)[C@H](N(C)C)[C@H](C)O3)[C@@H](OC4)[C@H](NC(=O)c3csc1n3)c1nc(cs1)C(=O)N2	0.015 µg/mL (≈ 0.00982 µM)	0.25 µg/mL (≈ 0.164 µM)	0.03 µg/mL (≈ 0.0196 µM)	> 2900 µg/mL	1 mg/kg		
CO/C(C)=C1/NC(=O)[C@H]([C@@H](C)O)NC(=O)c2csc(n2)-c2cc(O)c(-c3nc(C(=O)N[C@@H](C)C(=O)NCCOP(=O)([O-])[O-])cs3)nc2-c2csc(n2)[C@@H]2COC(=O)c3c4c5c(cccc5n3O)COC(=O)[C@@H](O[C@H]3C[C@](C)(O)[C@H](N(C)C)[C@H](C)O3)[C@@H](OC4)[C@H](NC(=O)c3csc1n3)c1nc(cs1)C(=O)N2.[Na+].[Na+]	0.5 µg/mL	16 µg/mL	8 µg/mL		1.65 mg/kg		> 4800 µg/mL
CO/C(C)=C1/NC(=O)[C@H]([C@@H](C)O)NC(=O)c2csc(n2)-c2cc(O)c(-c3nc(C(=O)N[C@@H](C)C(=O)NCc4ccc(CP(=O)(O)O)cc4)cs3)nc2-c2csc(n2)[C@@H]2COC(=O)c3c4c5c(cccc5n3O)COC(=O)[C@@H](O[C@H]3C[C@](C)(O)[C@H](N(C)C)[C@H](C)O3)[C@@H](OC4)[C@H](NC(=O)c3csc1n3)c1nc(cs1)C(=O)N2	0.25 µg/mL (≈ 0.154 µM)	2 µg/mL (≈ 1.23 µM)	1 µg/mL (≈ 0.616 µM)		> 10 mg/kg		> 2600 µg/mL
CO/C(C)=C1/NC(=O)[C@H]([C@@H](C)O)NC(=O)c2csc(n2)-c2cc(O)c(-c3nc(C(=O)N[C@@H](C)C(=O)NC(CC(=O)O)C(=O)O)cs3)nc2-c2csc(n2)[C@@H]2COC(=O)c3c4c5c(cccc5n3O)COC(=O)[C@@H](O[C@H]3C[C@](C)(O)[C@H](N(C)C)[C@H](C)O3)[C@@H](OC4)[C@H](NC(=O)c3csc1n3)c1nc(cs1)C(=O)N2 (stereo not given in full)	0.25 µg/mL (≈ 0.161 µM)	16 µg/mL (≈ 10.3 µM)	16 µg/mL (≈ 10.3 µM)				
